Structures can show the parent of a compound that is named as a salt.

Usually melting point stands for the temperature of the solid-liquid transition.

The compound `CSc1ccccc1OC[C@@H](O)CN1CCC2(CC1)OCc1c2ccc2c1OCCO2` (as salt: oxalate) had a melting point of 180 °C.

`O[C@H](COc1ccccc1C1CCCC1)CN1CCC2(CC1)OCc1c2ccc2c1OCCCO2` (as salt: oxalate) registered a melting point of 169 to 171 °C.

In the case of `O[C@H](COc1ccccc1C1CCCC1)CN1CCC2(CC1)OCc1c2ccc2c1OCCO2` (as salt: oxalate), the melting point lay within 198 to 200 °C.

Source of the values: US6376505B1, “5-HT1A and 5-HT1Dαdalpha antagonists” (Eli Lilly and Company, priority 1997, dated 2002).
